These are literature values, as cited in patent US11628197B2, “Methods and compounds for treating effects of COVID-19 disease” (priority 2020, dated 2023).

The test system of one series is COVID-19 disease. The conditions noted are these: US Veterans Administration hospitals, France, China and Brazil.
The test system of the next series is COVID-19. The note with it: study of 243 subjects.

For `CCN(CC)CCCC(C)Nc1ccnc2cc(Cl)ccc12` (stereo not drawn) [chloroquine], in the series with COVID-19 disease, the “Therapeutic effects after clinical testing” value is reported as “failed to produce desired therapeutic effects”.
For the molecule `CCN(CCO)CCCC(C)Nc1ccnc2cc(Cl)ccc12` (stereo not drawn) [hydroxycholoroquine], in the series on COVID-19 disease, the “Therapeutic effects after clinical testing” value was “failed to produce desired therapeutic effects”.
As for “Tocilizumab: humanized monoclonal antibody targeting IL-6 receptors”, the “Efficacy for preventing intubation or death” value in the series with COVID-19 is given as “failed to show efficacy”.
